Source: patent US11267812B2 (Mirati Therapeutics, Inc., priority 2016, dated 2022)

Legend:
[1] = molecular target: KRas G12C (Homo sapiens, UniProt P01116, C118S/C51S/C80L/G12C); test: KRas G12C Modification Assay (LCMS detection of covalent adduct); assay type: binding; settings: 5 μM compound, 3 hours
Procedure: A 10 μL aliquot of each protein solution was then transferred to a 384 well microtiter plate. Initial compound stocks were generated at fifty times their desired final assay concentration in DMSO.
Exemplary compounds of Formula (I) were diluted 25-fold into K-Ras Assay Buffer to a final of two times their final concentration. A 10 μL aliquot of each diluted compound solution was then added to each of the protein solutions in the microtiter plate to initiate reaction. […] At each time point, the reactions were quenched with 20 μL of a 25 mM acetic acid solution. […] Once all reactions were quenched, the plates were heat sealed and the samples were injected into a LC/MS system for data acquisition.
Samples were injected in their liquid phase onto a C-3 reverse phase column to remove assay buffer and prepare the samples for mass spectrometer. The proteins were eluted from the column using an acetonitrile gradient and fed directly into the mass analyzer. Initial raw data analysis took place in Agilent MassHunter software immediately post data acquisition.
Raw data analysis of the intact protein was exclusively a deconvolution of the multiple charge states of each protein in solution using a maximum entropy deconvolution provided in Mass Hunter. To minimize complexity, only the data over limited mass ranges were considered for analysis, with a minimum of one Dalton mass step intervals. The heights of all masses identified during raw data analysis were exported to be further analyzed in Spotfire® data analysis software.
Final data analysis was a multistep process in the Spotfire® data analysis software package. Briefly, each protein mass was calculated as a percent of the total signal of that sample, that percentage was then normalized to the percentage of signal of the protein in the absence of reactive compounds. Those normalized signals were reported as normalized percent of control (POC). […] Key: “A”≤25% POC; “B”>25% POC≤50% POC; “C”>50% POC and ND=not determined.

[2] = tested on: Phospho-ERK in NCI-H358 cells expressing KRas G12C; test: Cellular inhibition of KRas G12C by Phospho-ERK measurement in NCI-H358 cells; assay type: cell-based; settings: Homo sapiens; NCI-H358 cells, 3 hours compound treatment; read-out: IC50 (pERK(Thr202/Tyr204) normalized with GAPDH)
Summary of the method: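 After 8–12 h attachment, NCI-H358 cells were treated with compounds for 3 h (0.5% DMSO final), fixed, methanol-permeabilized and immunostained. pERK(Thr202/Tyr204) was read by infrared imaging and normalized to GAPDH as percent of DMSO control. IC50 came from a 4-parameter fit.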

| Compound | POC (normalized percent of control, KRas G12C modification) [1] | IC50 [2] [µM] |
| --- | --- | --- |
| C=CC(=O)N1CCN(c2nc(OC[C@@H]3CCCN3C)nc3c2CCN(c2c(C(F)(F)F)ccc4[nH]ncc24)C3)CC1CC#N (stereo partly drawn) [Example 149, 2-[4-[2-[[(2S)-1-methylpyrrolidin-2-yl]methoxy]-7-[5-(trifluoromethyl)-1H-indazol-4-yl]-6,8-dihydro-5H-pyrido[3,4-d]pyrimidin-4-yl]-1-prop-2-enoyl-piperazin-2-yl]acetonitrile] | B (“B”>25% POC≤50% POC) | 0.001 to 1 |
| C=CC(=O)N1CCN(c2nc(OC[C@@H]3CCCN3C)nc3c2CCN(c2ccccc2C(F)(F)F)C3)CC1CC#N (stereo partly drawn) [Example 210, 2-(1-acryloyl-4-(2-(((S)-1-methylpyrrolidin-2-yl)methoxy)-7-(2-(trifluoromethyl)phenyl)-5,6,7,8-tetrahydropyrido[3,4-d]pyrimidin-4-yl)piperazin-2-yl)acetonitrile] | C (“C”>50% POC) | 0.001 to 1 |
| C=CC(=O)N1CCN(c2nc(OC[C@@H]3CCCN3C)nc3c2CCN(c2ccccc2C(C)C)C3)CC1 [Example 158, 1-[4-[7-(2-isopropylphenyl)-2-[[(2S)-1-methylpyrrolidin-2-yl]methoxy]-6,8-dihydro-5H-pyrido[3,4-d]pyrimidin-4-yl]piperazin-1-yl]prop-2-en-1-one] | C (“C”>50% POC) | – |
| C=CC(=O)N1CCN(c2nc(OC[C@@H]3CCCN3C)nc3c2CCN(c2c(C(C)C)ccc4[nH]ncc24)C3)CC1 [Example 248, (S)-1-(4-(7-(5-isopropyl-1H-indazol-4-yl)-2-((1-methylpyrrolidin-2-yl)methoxy)-5,6,7,8-tetrahydropyrido[3,4-d]pyrimidin-4-yl)piperazin-1-yl)prop-2-en-1-one] | C (“C”>50% POC) | – |
| C=CC(=O)N1CCN(c2nc(OCCCN3CCOCC3)nc3c2CCN(c2cc(O)cc4sc(C)nc24)C3)CC1 [Example 166, 1-[4-[7-(6-hydroxy-2-methyl-1,3-benzothiazol-4-yl)-2-(3-morpholinopropoxy)-6,8-dihydro-5H-pyrido[3,4-d]pyrimidin-4-yl]piperazin-1-yl]prop-2-en-1-one] | B (“B”>25% POC≤50% POC) | – |
| C=CC(=O)N1CCN(c2nc(OCCCN3CCOCC3)nc3c2CCN(c2c(C)c(O)cc4ccccc24)C3)CC1 [Example 173, 1-(4-(7-(3-hydroxy-2-methylnaphthalen-1-yl)-2-(3-morpholinopropoxy)-5,6,7,8-tetrahydropyrido[3,4-d]pyrimidin-4-yl)piperazin-1-yl)prop-2-en-1-one] | C (“C”>50% POC) | – |
| C=CC(=O)N1CCN(c2nc(OCCCN3CCOCC3)nc3c2CCN(c2cc(O)cc4cc(C)[nH]c24)C3)CC1 [Example 167, 1-(4-(7-(5-hydroxy-2-methyl-1H-indol-7-yl)-2-(3-morpholinopropoxy)-5,6,7,8-tetrahydropyrido[3,4-d]pyrimidin-4-yl)piperazin-1-yl)prop-2-en-1-one] | B (“B”>25% POC≤50% POC) | – |
| C=CC(=O)N1CCN(c2nc(OCCCN3CCOCC3)nc3c2CCN(c2c(F)c(O)cc4ccccc24)C3)CC1 [Example 165, 1-[4-[7-(2-fluoro-3-hydroxy-1-naphthyl)-2-(3-morpholinopropoxy)-6,8-dihydro-5H-pyrido[3,4-d]pyrimidin-4-yl]piperazin-1-yl]prop-2-en-1-one] | C (“C”>50% POC) | – |
| C=CC(=O)N1CCN(c2nc(OCCCN3CCOCC3)nc3c2CCN(c2cc(O)cc4cccnc24)C3)CC1 [Example 205, 1-(4-(7-(6-hydroxyquinolin-8-yl)-2-(3-morpholinopropoxy)-5,6,7,8-tetrahydropyrido[3,4-d]pyrimidin-4-yl)piperazin-1-yl)prop-2-en-1-one] | C (“C”>50% POC) | – |

Further lines, with some results ahead:

| POC (normalized percent of control, KRas G12C modification) [1] | Compound | IC50 [2] [µM] |
| --- | --- | --- |
| C (“C”>50% POC) | C=CC(=O)N1CCN(c2nc(OC[C@@H]3CCCN3CC3CC3)nc3c2CCN(c2cccc4ccccc24)C3)CC1CC#N (stereo partly drawn) [Example 257, 2-(1-acryloyl-4-(2-(((S)-1-(cyclopropylmethyl)pyrrolidin-2-yl)methoxy)-7-(naphthalen-1-yl)-5,6,7,8-tetrahydropyrido[3,4-d]pyrimidin-4-yl)piperazin-2-yl)acetonitrile] | 0.001 to 1 |
| C (“C”>50% POC) | C=CC(=O)N1CCN(c2nc(OCCN(C)C)nc3c2CCN(c2cc(O)cc4ccccc24)C3)CC1CC#N (stereo not drawn) [Example 170, 2-(1-acryloyl-4-(2-(2-(dimethylamino)ethoxy)-7-(3-hydroxynaphthalen-1-yl)-5,6,7,8-tetrahydropyrido[3,4-d]pyrimidin-4-yl)piperazin-2-yl)acetonitrile] | 0.001 to 1 |
| C (“C”>50% POC) | C=CC(=O)N1CCN(c2nc(OCCCN3C[C@H]4C[C@@H]3CO4)nc3c2CCN(c2cc(O)cc4ccccc24)C3)CC1 [Example 185, 1-(4-(2-(3-((1R,4R)-2-oxa-5-azabicyclo[2.2.1]heptan-5-yl)propoxy)-7-(3-hydroxynaphthalen-1-yl)-5,6,7,8-tetrahydropyrido[3,4-d]pyrimidin-4-yl)piperazin-1-yl)prop-2-en-1-one] | 0.001 to 1 |
| C (“C”>50% POC) | C=CC(=O)N1CCN(c2nc(OCCN(C)C)nc3c2CCN(c2cc(O)cc4ccccc24)C3)CC1CCO (stereo not drawn) [Example 171, 1-(4-(2-(2-(dimethylamino)ethoxy)-7-(3-hydroxynaphthalen-1-yl)-5,6,7,8-tetrahydropyrido[3,4-d]pyrimidin-4-yl)-2-(2-hydroxyethyl)piperazin-1-yl)prop-2-en-1-one] | – |
| C (“C”>50% POC) | C=CC(=O)N1CCN(c2nc(OC[C@@H]3CCCN3C)nc3c2CCN(c2cccc4ccncc24)C3)CC1CC#N (stereo partly drawn) [Example 244, 2-[4-[7-(8-isoquinolyl)-2-[[(2S)-1-methylpyrrolidin-2-yl]methoxy]-6,8-dihydro-5H-pyrido[3,4-d]pyrimidin-4-yl]-1-prop-2-enoyl-piperazin-2-yl]acetonitrile] | 0.001 to 1 |
| C (“C”>50% POC) | C=CC(=O)N1CCN(c2nc(OCCCN3CC4CC4C3)nc3c2CCN(c2cc(O)cc4ccccc24)C3)CC1 (stereo not drawn) [Example 206, 1-(4-(2-(3-(3-azabicyclo[3.1.0]hexan-3-yl)propoxy)-7-(3-hydroxynaphthalen-1-yl)-5,6,7,8-tetrahydropyrido[3,4-d]pyrimidin-4-yl)piperazin-1-yl)prop-2-en-1-one] | 0.001 to 1 |
| C (“C”>50% POC) | C=CC(=O)N1CCN(c2nc(OCCN3CCC[C@@H](F)C3)nc3c2CCN(c2cc(O)cc4ccccc24)C3)CC1 [Example 207, (R)-1-(4-(2-(2-(3-fluoropiperidin-1-yl)ethoxy)-7-(3-hydroxynaphthalen-1-yl)-5,6,7,8-tetrahydropyrido[3,4-d]pyrimidin-4-yl)piperazin-1-yl)prop-2-en-1-one] | – |
| C (“C”>50% POC) | C=CC(=O)N1CCN(c2nc(OCCCN3C[C@@H](F)[C@@H](F)C3)nc3c2CCN(c2cc(O)cc4ccccc24)C3)CC1 [Example 208, 1-(4-(2-(3-((3R,4S)-3,4-difluoropyrrolidin-1-yl)propoxy)-7-(3-hydroxynaphthalen-1-yl)-5,6,7,8-tetrahydropyrido[3,4-d]pyrimidin-4-yl)piperazin-1-yl)prop-2-en-1-one] | – |
